According to patent US20150105252A1, “SUBSTITUTED PYRAZOLES AS HERBICIDES” (E I DU PONT DE NEMOURS AND COMPANY, priority 2013, published 2015):

What was measured:
barnyardgrass [1] = assay: Test A preemergence; format: in vivo, Echinochloa crus-galli; conditions: preemergence
Outline: (§1)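 Injury readout: eye-scored versus untreated controls, 0 to 100. Exposure period: ~10 days, greenhouse. Application: soil-directed spray over sown seed (pre) or spray on seedlings 2–10 cm tall with one or two leaves (post), compound carried in non-phytotoxic solvent including surfactant.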

crabgrass, large [2] = assay: Test A preemergence; format: in vivo, Digitaria sanguinalis; conditions: preemergence; for Crabgrass, Large plant response rating (0 to 100 scale): visual injury approx. 10 days after treatment
Outline: as §1

foxtail, giant [3] = assay: Test A preemergence; format: in vivo, Setaria faberii; conditions: preemergence; for Foxtail, Giant plant response rating (0 to 100 scale): visual injury approx. 10 days after treatment
Outline: as §1

morningglory [4] = assay: Test A preemergence; format: in vivo, Ipomoea spp.; conditions: preemergence; for Morningglory plant response rating (0 to 100 scale): visual injury approx. 10 days after treatment
Outline: as §1

pigweed [5] = assay: Test A preemergence; format: in vivo, Amaranthus retroflexus; conditions: preemergence; for Pigweed plant response rating (0 to 100 scale): visual injury approx. 10 days after treatment
Outline: as §1

velvetleaf [6] = assay: Test A preemergence; format: in vivo, Abutilon theophrasti; conditions: preemergence; for Velvetleaf plant response rating (0 to 100 scale): visual injury approx. 10 days after treatment
Outline: as §1

wheat [7] = assay: Test A preemergence; format: in vivo, Triticum aestivum; conditions: preemergence; for Wheat plant response rating (0 to 100 scale): visual injury approx. 10 days after treatment
Outline: as §1

corn [8] = assay: Test A preemergence; format: in vivo, Zea mays; conditions: preemergence; for Corn plant response rating (0 to 100 scale): visual injury approx. 10 days after treatment
Outline: as §1

barnyardgrass [9] = assay: Test A postemergence; format: in vivo, Echinochloa crus-galli
Outline: as §1

crabgrass, large [10] = assay: Test A postemergence; format: in vivo, Digitaria sanguinalis
Outline: as §1

foxtail, giant [11] = assay: Test A postemergence; format: in vivo, Setaria faberii
Outline: as §1

morningglory [12] = assay: Test A postemergence; format: in vivo, Ipomoea spp.
Outline: as §1

pigweed [13] = assay: Test A postemergence; format: in vivo, Amaranthus retroflexus
Outline: as §1

velvetleaf [14] = assay: Test A postemergence; format: in vivo, Abutilon theophrasti
Outline: as §1

wheat [15] = assay: Test A postemergence; format: in vivo, Triticum aestivum
Outline: as §1

corn [16] = assay: Test A postemergence; format: in vivo, Zea mays
Outline: as §1

rice = assay: Test B flood; format: in vivo, Oryza sativa; conditions: 250 g ai/ha, visual rating on 0 to 100 scale (0 no effect, 100 complete control), 13 to 15 days
Outline: (§2)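 Visual ratings on a 0–100 scale, where 0 means no effect and 100 means complete control, were assigned by comparison with controls 13 to 15 days after treatment. Compounds went into paddy water over 2-leaf plants flooded to 3 cm.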

sedge, umbrella = assay: Test B flood; format: in vivo, Cyperus difformis; conditions: 250 g ai/ha, visual rating on 0 to 100 scale (0 no effect, 100 complete control), 13 to 15 days
Outline: as §2

ducksalad = assay: Test B flood; format: in vivo, Heteranthera limosa; conditions: 250 g ai/ha, visual rating on 0 to 100 scale (0 no effect, 100 complete control), 13 to 15 days
Outline: as §2

barnyardgrass [17] = assay: Test B flood; format: in vivo, Echinochloa crus-galli; conditions: 250 g ai/ha, visual rating on 0 to 100 scale (0 no effect, 100 complete control), 13 to 15 days
Outline: as §2

[18] = 125 g ai/ha, visual injury, 0 to 100 scale, approx. 10 days
[19] = 500 g ai/ha, visual injury after approx. 10 days, 0 to 100 scale (0 no effect, 100 complete control)
[20] = Postemergence, 500 g ai/ha, visual rating after approx. 10 days, 0 to 100 scale (0 no effect, 100 complete control)
[21] = postemergence, 125 g ai/ha, about 10 days, visual rating on 0 to 100 scale (0 no effect, 100 complete control)
[22] = Postemergence, 500 g ai/ha, 0 to 100 scale (0 no effect, 100 complete control)

| Compound | Barnyardgrass plant response rating (barnyardgrass [1]; [18]) | Barnyardgrass plant response rating (barnyardgrass [1]; [19]) | Crabgrass, Large plant response rating (crabgrass, large [2]; [19]) | Foxtail, Giant plant response rating (foxtail, giant [3]; [19]) | Morningglory plant response rating (morningglory [4]; [19]) | Pigweed plant response rating (pigweed [5]; [19]) | Velvetleaf plant response rating (velvetleaf [6]; [19]) | Wheat plant response rating (wheat [7]; [19]) | Barnyardgrass plant response rating (barnyardgrass [9]; [21]) | Crabgrass, Large plant response rating (crabgrass, large [10]; [21]) | Foxtail, Giant plant response rating (foxtail, giant [11]; [21]) | Morningglory plant response rating (morningglory [12]; [21]) | Pigweed plant response rating (pigweed [13]; [21]) | Velvetleaf plant response rating (velvetleaf [14]; [21]) | Wheat plant response rating (wheat [15]; [21]) | Corn plant response rating (corn [16]; [21]) | Plant response rating, Rice (rice) | Plant response rating, Sedge, Umbrella (sedge, umbrella) | Plant response rating, Ducksalad (ducksalad) | Plant response rating, Barnyardgrass (barnyardgrass [17]) | other results |
| --- | --- | --- | --- | --- | --- | --- | --- | --- | --- | --- | --- | --- | --- | --- | --- | --- | --- | --- | --- | --- | --- |
| CCc1cc(C(=O)NC2CC2)nn1Cc1cc(C(F)(F)F)nn1CC [Compound 118] | 40 | 100 | 100 | 90 | 100 | 100 | 80 | 30 | 30 | 40 | 10 | 70 | 80 | 50 | 0 | 20 | 0 | 85 | 30 | 0 | Crabgrass, Large plant response rating (crabgrass, large [2]; [18]): 100; Foxtail, Giant plant response rating (foxtail, giant [3]; [18]): 70; Morningglory plant response rating (morningglory [4]; [18]): 70; Pigweed plant response rating (pigweed [5]; [18]): 100; Velvetleaf plant response rating (velvetleaf [6]; [18]): 0; Wheat plant response rating (wheat [7]; [18]): 0; Corn plant response rating (corn [8]; [18]): 0; Corn plant response rating (corn [8]; [19]): 50; Barnyardgrass plant response rating (barnyardgrass [9]; [20]): 80; Crabgrass, Large plant response rating (crabgrass, large [10]; [20]): 90; Foxtail, Giant plant response rating (foxtail, giant [11]; [20]): 70; Morningglory plant response rating (morningglory [12]; [20]): 90; Pigweed plant response rating (pigweed [13]; [20]): 100; Velvetleaf plant response rating (velvetleaf [14]; [20]): 80; Wheat plant response rating (wheat [15]; [20]): 40; Corn plant response rating (corn [16]; [20]): 50 |
| CCc1cc(C(=O)NCC(F)(F)F)nn1Cc1cc(C(F)(F)F)nn1CC [Compound 119] | 0 | 70 | 100 | 80 | 60 | 100 | 30 | 20 | 10 | 20 | 20 | 90 | 60 | 50 | 0 | 0 | 0 | 75 | 40 | 0 | Crabgrass, Large plant response rating (crabgrass, large [2]; [18]): 70; Foxtail, Giant plant response rating (foxtail, giant [3]; [18]): 20; Morningglory plant response rating (morningglory [4]; [18]): 20; Pigweed plant response rating (pigweed [5]; [18]): 80; Velvetleaf plant response rating (velvetleaf [6]; [18]): 0; Wheat plant response rating (wheat [7]; [18]): 0; Corn plant response rating (corn [8]; [18]): 0; Corn plant response rating (corn [8]; [19]): 30; Barnyardgrass plant response rating (barnyardgrass [9]; [22]): 60; Crabgrass, Large plant response rating (crabgrass, large [10]; [22]): 60; Foxtail, Giant plant response rating (foxtail, giant [11]; [22]): 50; Morningglory plant response rating (morningglory [12]; [22]): 100; Pigweed plant response rating (pigweed [13]; [22]): 90; Velvetleaf plant response rating (velvetleaf [14]; [22]): 70; Wheat plant response rating (wheat [15]; [22]): 10; Corn plant response rating (corn [16]; [22]): 50 |
| CCONC(=O)c1cc(CC)n(Cc2cc(C(F)(F)F)nn2CC)n1 [Compound 121] | 70 | 100 | 100 | 80 | 100 | 100 | 100 | 80 | 90 | 70 | 50 | 90 | 90 | 60 | 0 | 40 | 20 | 75 | 75 | 15 | Crabgrass, Large plant response rating (crabgrass, large [2]; [18]): 90; Foxtail, Giant plant response rating (foxtail, giant [3]; [18]): 60; Morningglory plant response rating (morningglory [4]; [18]): 100; Pigweed plant response rating (pigweed [5]; [18]): 100; Velvetleaf plant response rating (velvetleaf [6]; [18]): 20; Wheat plant response rating (wheat [7]; [18]): 10; Corn plant response rating (corn [8]; [18]): 30; Corn plant response rating (corn [8]; [19]): 90; Barnyardgrass plant response rating (barnyardgrass [9]; [22]): 90; Crabgrass, Large plant response rating (crabgrass, large [10]; [22]): 90; Foxtail, Giant plant response rating (foxtail, giant [11]; [22]): 80; Morningglory plant response rating (morningglory [12]; [22]): 100; Pigweed plant response rating (pigweed [13]; [22]): 100; Velvetleaf plant response rating (velvetleaf [14]; [22]): 100; Wheat plant response rating (wheat [15]; [22]): 60; Corn plant response rating (corn [16]; [22]): 70 |
| CCc1cc(C(=O)NCC(F)(F)F)nn1Cc1nnc(C(F)(F)F)o1 [Compound 146] | 0 | 90 | 100 | 90 | 100 | 100 | 60 | 10 | 0 | 10 | 0 | 20 | 60 | 10 | 0 | 0 | 0 | 0 | 0 | 0 | Crabgrass, Large plant response rating (0 to 100 scale) (crabgrass, large [2]; 125 g ai/ha): 80; Foxtail, Giant plant response rating (0 to 100 scale) (foxtail, giant [3]; 125 g ai/ha): 10; Morningglory plant response rating (0 to 100 scale) (morningglory [4]; 125 g ai/ha): 20; Pigweed plant response rating (0 to 100 scale) (pigweed [5]; 125 g ai/ha): 100; Velvetleaf plant response rating (0 to 100 scale) (velvetleaf [6]; 125 g ai/ha): 10; Wheat plant response rating (0 to 100 scale) (wheat [7]; 125 g ai/ha): 0; Corn plant response rating (0 to 100 scale) (corn [8]; 125 g ai/ha): 0; Barnyardgrass plant response rating (barnyardgrass [9]; [22]): 10; Crabgrass, Large plant response rating (crabgrass, large [10]; [22]): 80; Foxtail, Giant plant response rating (foxtail, giant [11]; [22]): 20; Morningglory plant response rating (morningglory [12]; [22]): 80; Pigweed plant response rating (pigweed [13]; [22]): 90; Velvetleaf plant response rating (velvetleaf [14]; [22]): 20; Wheat plant response rating (wheat [15]; [22]): 0; Corn plant response rating (corn [16]; [22]): 0 |
| CCCCc1cc(C(=O)NCC(F)(F)F)nn1Cc1ccnc(C(F)(F)F)c1 [Compound 148] | 10 | 40 | 100 | 90 | 30 | 100 | 20 | 0 | 10 | 20 | 10 | 80 | 90 | 20 | 0 | 10 | 15 | 40 | 30 | 0 | Crabgrass, Large plant response rating (0 to 100 scale) (crabgrass, large [2]; 125 g ai/ha): 50; Foxtail, Giant plant response rating (0 to 100 scale) (foxtail, giant [3]; 125 g ai/ha): 10; Morningglory plant response rating (0 to 100 scale) (morningglory [4]; 125 g ai/ha): 0; Pigweed plant response rating (0 to 100 scale) (pigweed [5]; 125 g ai/ha): 100; Velvetleaf plant response rating (0 to 100 scale) (velvetleaf [6]; 125 g ai/ha): 0; Wheat plant response rating (0 to 100 scale) (wheat [7]; 125 g ai/ha): 0; Corn plant response rating (0 to 100 scale) (corn [8]; 125 g ai/ha): 0; Corn plant response rating (corn [8]; [19]): 0; Barnyardgrass plant response rating (barnyardgrass [9]; [22]): 40; Crabgrass, Large plant response rating (crabgrass, large [10]; [22]): 50; Foxtail, Giant plant response rating (foxtail, giant [11]; [22]): 40; Morningglory plant response rating (morningglory [12]; [22]): 90; Pigweed plant response rating (pigweed [13]; [22]): 100; Velvetleaf plant response rating (velvetleaf [14]; [22]): 60; Wheat plant response rating (wheat [15]; [22]): 20; Corn plant response rating (corn [16]; [22]): 40 |
